# According to article PMC12316308, “Interactions of substrates and phosphinyl containing inhibitors with bacterial and human zinc proteases” (PLOS One, 2025):
# “And” between values parts separate entries of the source, which are not always exact repeats. Identical values can stand only once. Like-named read-outs stand apart in the source and are kept apart here.
# Columns and labels:
# [1] = target: T1, human MT1-MMP/MMP-14 (catalytic domain) (Homo sapiens, UniProt P50281); assay: Enzyme inhibition kinetics, fluorogenic substrate ES001; type: biochemical; details: for remaining activity at 10 µM: 10 µM inhibitor
# T1 construct: human MT1-MMP/MMP-14 (catalytic domain); purchased Calbiochem (San Diego, CA, USA)
# [2] = target: T2, APMA activated MMP-9 (MMP-9(A)) (Homo sapiens, UniProt P14780); assay: as above; type: biochemical; details: for remaining activity at 10 µM: 10 µM inhibitor
# T2 construct: made in house; host or cells: Sf9 and High Five insect cells
# T2 sequence (P14780 107-707 limits assumed): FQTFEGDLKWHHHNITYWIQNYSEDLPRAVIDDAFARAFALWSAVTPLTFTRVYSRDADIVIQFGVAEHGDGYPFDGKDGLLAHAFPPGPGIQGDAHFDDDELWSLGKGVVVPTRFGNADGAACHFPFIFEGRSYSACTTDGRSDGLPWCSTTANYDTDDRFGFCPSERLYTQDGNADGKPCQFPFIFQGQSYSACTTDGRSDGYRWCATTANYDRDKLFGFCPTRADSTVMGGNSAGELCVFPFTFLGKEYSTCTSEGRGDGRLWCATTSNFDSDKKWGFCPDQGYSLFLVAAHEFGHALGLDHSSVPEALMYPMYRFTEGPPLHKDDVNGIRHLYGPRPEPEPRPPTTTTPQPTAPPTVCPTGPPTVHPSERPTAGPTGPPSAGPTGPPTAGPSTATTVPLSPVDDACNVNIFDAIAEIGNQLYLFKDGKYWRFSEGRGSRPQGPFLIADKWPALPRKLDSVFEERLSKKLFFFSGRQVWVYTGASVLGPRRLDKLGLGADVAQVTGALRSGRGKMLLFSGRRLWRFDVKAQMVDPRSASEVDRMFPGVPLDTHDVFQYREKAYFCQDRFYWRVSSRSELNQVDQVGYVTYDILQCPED
# Method in brief: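 Recombinant full-length proMMP-9 expressed in insect cells was auto-activated with APMA and titrated with galardin. Activity at 0.05 nM enzyme was measured using 4.0 µM fluorogenic substrate ES001 in 100 µL 0.1 M Hepes pH 7.5 containing 10 mM CaCl2, 0.005% Brij-35 and 1.0% DMSO. Initial rates were followed at 37°C (excitation 320 nm, emission 405 nm) relative to inhibitor-free controls.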
# [3] = target: T3, Mag-Trypsin activated MMP-9 (MMP-9(MT)) (Homo sapiens, UniProt P14780); assay: as above; type: biochemical; details: for remaining activity at 100 µM: 100 µM inhibitor; for vi/v0: Mag-Trypsin activated recombinant human MMP-9, v0 = average of vi at 10-10 to 10-8 M H2
# T3 construct: made in house; host or cells: Sf9 and High Five insect cells
# T3 sequence (P14780 107-707 limits assumed): as above
# thermolysin (TLN) = target: T4, thermolysin (TLN) (Bacillus thermoproteolyticus, UniProt P00800); assay: Enzyme inhibition kinetics, fluorogenic substrate ES005; type: biochemical; details: for remaining activity at 10 µM: log [H2] (M) -5; for remaining activity at 0.1 µM: log [H2] (M) -7; for remaining activity at 0.01 µM: log [H2] (M) -8; for remaining activity at 0.0001 µM: log [H2] (M) -10; for vi/v0 avg (time dependent inhibition, Supplementary Figure S8): Thermolysin, inhibitor 10 µM
# T4 construct: purchased Calbiochem (San Diego, CA, USA)
# T4 sequence (P00800 233-548): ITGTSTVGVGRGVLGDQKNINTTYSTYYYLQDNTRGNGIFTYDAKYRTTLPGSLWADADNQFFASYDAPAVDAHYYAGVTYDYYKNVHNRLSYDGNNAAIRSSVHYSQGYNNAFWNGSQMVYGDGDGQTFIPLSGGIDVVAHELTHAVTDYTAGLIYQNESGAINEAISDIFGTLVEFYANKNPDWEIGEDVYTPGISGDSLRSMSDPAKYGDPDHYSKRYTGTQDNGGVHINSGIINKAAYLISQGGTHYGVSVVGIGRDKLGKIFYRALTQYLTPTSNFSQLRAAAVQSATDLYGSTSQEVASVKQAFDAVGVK
# Method in brief: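 Initial rates were read at 37 °C (ex 320/em 405 nm) with 4.0 µM substrate, ES001 for MMP-14 (1.0 nM) and ES005 for PLN (0.5 nM), TLN (0.21 nM), ALN (1.4 nM), in pH 7.5 Hepes, 10 mM CaCl2, 0.005% Brij-35, 1.0% DMSO. Enzymes were preincubated 30 min at room temperature or not; IC50 fitted, Ki from IC50 using Km.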
# pseudolysin (PLN, LasB) = target: T5, pseudolysin (PLN, LasB) (Pseudomonas aeruginosa, UniProt P14756); assay: as above; type: biochemical; details: for remaining activity at 100 µM: 100 µM inhibitor
# T5 construct: purchased Calbiochem (San Diego, CA, USA)
# T5 sequence (P14756 198-498): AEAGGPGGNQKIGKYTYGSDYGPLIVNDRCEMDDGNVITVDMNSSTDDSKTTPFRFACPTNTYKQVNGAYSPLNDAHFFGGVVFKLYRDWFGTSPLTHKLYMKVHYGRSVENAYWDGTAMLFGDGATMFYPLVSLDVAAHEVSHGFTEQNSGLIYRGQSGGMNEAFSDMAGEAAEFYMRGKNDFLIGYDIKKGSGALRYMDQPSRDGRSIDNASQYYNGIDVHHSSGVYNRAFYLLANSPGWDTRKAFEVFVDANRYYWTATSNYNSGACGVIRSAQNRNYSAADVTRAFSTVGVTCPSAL
# aureolysin (ALN) = target: T6, aureolysin (ALN) (Staphylococcus aureus, UniProt P81177); assay: as above; type: biochemical; details: for remaining activity at 100 µM: 100 µM inhibitor
# T6 construct: purchased BioCentrum Ltd (Kraków, Poland)
# T6 sequence (P81177 209-509): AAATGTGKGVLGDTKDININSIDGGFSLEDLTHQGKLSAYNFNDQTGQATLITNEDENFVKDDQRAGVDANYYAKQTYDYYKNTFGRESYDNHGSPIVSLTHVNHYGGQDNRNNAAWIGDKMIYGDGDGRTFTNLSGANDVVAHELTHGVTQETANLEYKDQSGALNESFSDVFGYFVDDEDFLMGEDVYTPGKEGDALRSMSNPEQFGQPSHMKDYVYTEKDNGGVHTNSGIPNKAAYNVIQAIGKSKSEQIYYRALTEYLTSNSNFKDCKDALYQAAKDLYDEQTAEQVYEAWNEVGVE
# MMP-14 = details: cited from earlier work
# MMP-9 = details: previously reported; cited from earlier work
# [4] = TLN, log [H2] (M) -4, replicates
# [5] = TLN, replicates, read-out: vi/v0 before correction of kurve
# [6] = TLN, replicates, read-out: vi/v0 corrected (v0 is the average of log -10 to log -7)
structure (smiles),measurement,setting,value
NC(=O)C(Cc1c[nH]c2ccccc12)NC(=O)C(CCCc1ccccc1)CP(=O)(O)C(Cc1ccccc1)NC(=O)OCc1ccccc1 (centres unmarked) [H-2],remaining activity at 10 µM,"[1]; 0.25 h, MMP-14, 15 min pre incubation, read-out: vi/v0 (single replicate)",16.5%
same,remaining activity at 10 µM,"[1]; 0.25 h, MMP-14, 15 min pre incubation, read-out: vi/v0 avg",16%
same,remaining activity at 10 µM,"[1]; 0.5 h, MMP-14, 30 min pre incubation, read-out: vi/v0 (single replicate)",14.6%
same,remaining activity at 10 µM,"[1]; 0.5 h, MMP-14, 30 min pre incubation, read-out: vi/v0 avg",14.7%
same,remaining activity at 10 µM,"[1]; MMP-14, no preincubation, read-out: vi/v0 (single replicate)",14.5%
same,remaining activity at 10 µM,"[1]; MMP-14, no preincubation, read-out: vi/v0 avg",17.8%
same,inhibitory effect on enzymatic activity,"[1]; MMP-14, 100 μM compound, in words",strong inhibition
same,vi/v0 Av (bar diagram figure 7),"[1]; MMP-14, inhibitor 10 μM, average over 0, 15, 30 min preincubation",0.1603
same,"vi/v0 (relative enzyme activity with inhibitor), single determinations","[1]; MMP-14, inhibitor 10 μM, preincubation 0 min",0.1454 and 0.1797 and 0.2098
same,Ki,[1]; read-out: Ki ± s.d. (converted),3000 nM
same,remaining activity at 10 µM,"[2]; 0.25 h, read-out: vi/v0 (single replicate), rMMP-9 (APMA activated), 15 min pre incubation",2.55%
same,remaining activity at 10 µM,"[2]; 0.25 h, read-out: vi/v0 avg, rMMP-9 (APMA activated), 15 min pre incubation",2.28%
same,remaining activity at 10 µM,"[2]; 0.5 h, read-out: vi/v0 (single replicate), rMMP-9 (APMA activated), 30 min pre incubation",1.79%
same,remaining activity at 10 µM,"[2]; 0.5 h, read-out: vi/v0 avg, rMMP-9 (APMA activated), 30 min pre incubation",1.99%
same,inhibitory effect on enzymatic activity,"[2]; MMP-9(A), 100 μM compound, in words",strong inhibition
same,Ki,"[2]; MMP-9(A), substrate ES001 4.0 µM, 0.1 M Hepes pH 7.5, 37°C, 1.0% DMSO, Ki from IC50 (Eqn. 3), read-out: Ki ± s.d. (converted)",560 nM
same,vi/v0 Av (bar diagram figure 7),"[2]; rMMP-9 (APMA activated), inhibitor 10 μM, average over 0, 15, 30 min preincubation",0.02111
same,"vi/v0 (relative enzyme activity with inhibitor), single determinations","[2]; rMMP-9 (APMA activated), inhibitor 10 μM, preincubation 0 min",0.0222 and 0.02292 and 0.01955 and 0.01797
same,"vi/v0 (relative enzyme activity with inhibitor), single determinations","[2]; rMMP-9 (APMA activated), inhibitor 10 μM, preincubation 15 min",0.02548 and 0.02093 and 0.0213 and 0.0234
same,"vi/v0 (relative enzyme activity with inhibitor), single determinations","[2]; rMMP-9 (APMA activated), inhibitor 10 μM, preincubation 30 min",0.01792 and 0.01966 and 0.0206 and 0.02139
same,remaining activity at 10 µM,"[2]; read-out: vi/v0 (single replicate), rMMP-9 (APMA activated), no preincubation",2.22%
same,remaining activity at 10 µM,"[2]; read-out: vi/v0 avg, rMMP-9 (APMA activated), no preincubation",2.07%
same,remaining activity at 100 µM,"[3]; 0.25 h, read-out: vi/v0 avg, rMMP-9 (Mag-trypsin activated), 15 min pre incubation",1.53%
same,remaining activity at 100 µM,"[3]; 0.5 h, read-out: vi/v0 (single replicate), rMMP-9 (Mag-trypsin activated), 30 min pre incubation",1.66%
same,remaining activity at 100 µM,"[3]; 0.5 h, read-out: vi/v0 avg, rMMP-9 (Mag-trypsin activated), 30 min pre incubation",1.41%
same,inhibitory effect on enzymatic activity,"[3]; MMP-9(MT), 100 μM compound, in words",strong inhibition
same,Ki,"[3]; MMP-9(MT), substrate ES001 4.0 µM, 0.1 M Hepes pH 7.5, 37°C, 1.0% DMSO, Ki from IC50 (Eqn. 3), read-out: Ki ± s.d. (converted)",530 nM
same,vi/v0,[3]; Log [H2] (M) -4,0.01838 and 0.0265 and 0.01864 and 0.01609
same,vi/v0,[3]; Log [H2] (M) -5,0.1569 and 0.1424 and 0.1393 and 0.1595
same,vi/v0,[3]; Log [H2] (M) -6,0.5598 and 0.5376 and 0.5583 and 0.5906
same,vi/v0,[3]; Log [H2] (M) -7,0.8621 and 0.7854 and 0.9893
same,vi/v0,[3]; Log [H2] (M) -8,0.9994 and 0.9899 and 0.9629
same,vi/v0,[3]; Log [H2] (M) -9,0.9775 and 0.9856 and 0.9448
same,vi/v0,[3]; Log [H2] (M) -10,1.053 and 1.045 and 1.043
same,vi/v0 Av (bar diagram figure 7),"[3]; rMMP-9 (Mag-trypsin activated), inhibitor 100 μM, average over 0, 15, 30 min preincubation",0.01565
same,"vi/v0 (relative enzyme activity with inhibitor), single determinations","[3]; rMMP-9 (Mag-trypsin activated), inhibitor 100 μM, preincubation 0 min",0.01777 and 0.01586 and 0.01778 and 0.01563
same,"vi/v0 (relative enzyme activity with inhibitor), single determinations","[3]; rMMP-9 (Mag-trypsin activated), inhibitor 100 μM, preincubation 30 min",0.01655 and 0.01171
same,remaining activity at 100 µM,"[3]; read-out: vi/v0 (single replicate), rMMP-9 (Mag-trypsin activated), no preincubation",1.78%
same,remaining activity at 100 µM,"[3]; read-out: vi/v0 avg, rMMP-9 (Mag-trypsin activated), no preincubation",1.68%
same,inhibitory effect on enzymatic activity,"thermolysin (TLN); TLN, 100 μM compound, in words",strong inhibition
same,vi/v0 before correction of kurve,thermolysin (TLN); [4],0
same,vi/v0 corrected (v0 is the average of log -10 to log -7),thermolysin (TLN); [4],0
same,remaining activity at 100 µM,"thermolysin (TLN); TLN, log [H2] (M) -4, replicates, read-out: vi/v0 before correction of kurve",0%
same,remaining activity at 100 µM,"thermolysin (TLN); TLN, log [H2] (M) -4, replicates, read-out: vi/v0 corrected (v0 is the average of log -10 to log -7)",0%
same,remaining activity at 10 µM,thermolysin (TLN); [5],28.2%
same,remaining activity at 10 µM,thermolysin (TLN); [6],28.1%
same,remaining activity at 0.1 µM,thermolysin (TLN); [5],99.7%
same,remaining activity at 0.1 µM,thermolysin (TLN); [6],99.5%
same,remaining activity at 0.01 µM,thermolysin (TLN); [5],102%
same,remaining activity at 0.01 µM,thermolysin (TLN); [6],102%
same,remaining activity at 0.0001 µM,thermolysin (TLN); [5],95%
same,remaining activity at 0.0001 µM,thermolysin (TLN); [6],94.8%
same,vi/v0 Av (bar diagram figure 7),"thermolysin (TLN); Thermolysin (TLN), inhibitor 10 μM, average over 0, 15, 30 min preincubation",0.2888
same,"vi/v0 (relative enzyme activity with inhibitor), single determinations","thermolysin (TLN); Thermolysin (TLN), inhibitor 10 μM, preincubation 0 min",0.2407 and 0.2992 and 0.3158 and 0.3218
same,"vi/v0 avg (time dependent inhibition, Supplementary Figure S8)",thermolysin (TLN); 15 min pre incubation,0.1753
same,"vi/v0 avg (time dependent inhibition, Supplementary Figure S8)",thermolysin (TLN); 30 min pre incubation,0.294
same,"vi/v0 avg (time dependent inhibition, Supplementary Figure S8)",thermolysin (TLN); No preincubation,0.2944
same,Ki,thermolysin (TLN); read-out: Ki ± s.d.,2500 nM
same,Ki,"pseudolysin (PLN, LasB)",40000 nM
same,remaining activity at 100 µM,"pseudolysin (PLN, LasB); 0.25 h, read-out: vi/v0 (single replicate), Pseudolysin, 15 min pre incubation",29.3%
same,remaining activity at 100 µM,"pseudolysin (PLN, LasB); 0.25 h, read-out: vi/v0 avg, Pseudolysin, 15 min pre incubation",29.7%
same,remaining activity at 100 µM,"pseudolysin (PLN, LasB); 0.5 h, read-out: vi/v0 avg, Pseudolysin, 30 min pre incubation",28.3%
same,inhibitory effect on enzymatic activity,"pseudolysin (PLN, LasB); PLN, 100 μM compound, in words",strong inhibition
same,vi/v0 Av (bar diagram figure 7),"pseudolysin (PLN, LasB); Pseudolysin (PLN), inhibitor 100 μM, average over 0, 15, 30 min preincubation",0.3295
same,"vi/v0 (relative enzyme activity with inhibitor), single determinations","pseudolysin (PLN, LasB); Pseudolysin (PLN), inhibitor 100 μM, preincubation 0 min",0.3705 and 0.2811 and 0.5391
same,"vi/v0 (relative enzyme activity with inhibitor), single determinations","pseudolysin (PLN, LasB); Pseudolysin (PLN), inhibitor 100 μM, preincubation 15 min",0.293 and 0.3019
same,remaining activity at 100 µM,"pseudolysin (PLN, LasB); read-out: vi/v0 avg, Pseudolysin, no preincubation",39.7%
same,Ki,aureolysin (ALN),80000 nM
same,remaining activity at 100 µM,"aureolysin (ALN); 0.25 h, read-out: vi/v0 (single replicate), Aureolysin, 15 min pre incubation",45.5%
same,remaining activity at 100 µM,"aureolysin (ALN); 0.25 h, read-out: vi/v0 avg, Aureolysin, 15 min pre incubation",41.5%
same,remaining activity at 100 µM,"aureolysin (ALN); 0.5 h, read-out: vi/v0 (single replicate), Aureolysin, 30 min pre incubation",39.1%
same,remaining activity at 100 µM,"aureolysin (ALN); 0.5 h, read-out: vi/v0 avg, Aureolysin, 30 min pre incubation",39.4%
same,inhibitory effect on enzymatic activity,"aureolysin (ALN); ALN, 100 μM compound, in words",strong inhibition
same,vi/v0 Av (bar diagram figure 7),"aureolysin (ALN); Aureolysin (ALN), inhibitor 100 μM, average over 0, 15, 30 min preincubation",0.4117
same,"vi/v0 (relative enzyme activity with inhibitor), single determinations","aureolysin (ALN); Aureolysin (ALN), inhibitor 100 μM, preincubation 0 min",0.4244 and 0.4426 and 0.4113 and 0.3677
same,"vi/v0 (relative enzyme activity with inhibitor), single determinations","aureolysin (ALN); Aureolysin (ALN), inhibitor 100 μM, preincubation 15 min",0.4549 and 0.4344 and 0.3957 and 0.4144
same,"vi/v0 (relative enzyme activity with inhibitor), single determinations","aureolysin (ALN); Aureolysin (ALN), inhibitor 100 μM, preincubation 30 min",0.3912 and 0.406 and 0.3859
same,remaining activity at 100 µM,"aureolysin (ALN); read-out: vi/v0 (single replicate), Aureolysin, no preincubation",42.4%
same,remaining activity at 100 µM,"aureolysin (ALN); read-out: vi/v0 avg, Aureolysin, no preincubation",41.1%
same,Ki,MMP-14; RRS enantiomer,386 nM
same,Ki,MMP-14; RSS enantiomer,90 nM
same,Ki,MMP-14; previously reported,40 nM
same,Ki,MMP-9,10 nM
